The text below walks through data of ChEMBL document CHEMBL5291721, “A preclinical secondary pharmacology resource illuminates target-adverse drug reaction associations of marketed drugs” (Nat Commun, 2023).

As a reminder, the AC50 is the concentration giving half of the maximal activity seen. Low values mean activity at low concentration, high ones activity only at high concentration.

The target of experiment [1] is T1, Adenosine receptor A1 (Homo sapiens, UniProt P30542).
T1 sequence (P30542 whole entry): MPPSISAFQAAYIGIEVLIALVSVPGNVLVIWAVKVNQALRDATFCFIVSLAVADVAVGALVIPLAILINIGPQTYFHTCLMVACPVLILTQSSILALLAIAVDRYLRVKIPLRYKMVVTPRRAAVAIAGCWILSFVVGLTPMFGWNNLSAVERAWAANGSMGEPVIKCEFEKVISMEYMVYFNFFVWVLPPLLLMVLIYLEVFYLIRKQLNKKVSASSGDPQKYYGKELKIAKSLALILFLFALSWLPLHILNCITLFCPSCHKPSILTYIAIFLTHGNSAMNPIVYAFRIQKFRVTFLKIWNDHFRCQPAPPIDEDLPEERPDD

Experiment [2] addresses T2, Alpha-2C adrenergic receptor (Homo sapiens, UniProt P18825).
T2 sequence (P18825 whole entry): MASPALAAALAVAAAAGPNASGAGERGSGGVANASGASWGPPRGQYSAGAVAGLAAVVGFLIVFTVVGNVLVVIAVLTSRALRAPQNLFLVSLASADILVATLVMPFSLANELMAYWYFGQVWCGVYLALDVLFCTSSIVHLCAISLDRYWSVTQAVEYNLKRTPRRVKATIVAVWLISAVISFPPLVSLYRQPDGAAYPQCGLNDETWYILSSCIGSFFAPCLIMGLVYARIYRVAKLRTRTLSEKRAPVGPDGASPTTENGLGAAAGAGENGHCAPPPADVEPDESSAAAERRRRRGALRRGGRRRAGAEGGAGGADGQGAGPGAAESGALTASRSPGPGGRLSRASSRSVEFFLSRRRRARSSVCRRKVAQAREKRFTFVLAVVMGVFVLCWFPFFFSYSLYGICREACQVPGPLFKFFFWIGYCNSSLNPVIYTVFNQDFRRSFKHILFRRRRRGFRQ
The experiment is classed as functional.

Experiment [3] addresses Vasopressin V1a receptor (Homo sapiens, UniProt P37288).
The target of experiment [4] is Neuronal acetylcholine receptor subunit alpha-4 (Homo sapiens, UniProt P43681).
Chain of Neuronal acetylcholine receptor subunit alpha-4 (P43681 whole entry): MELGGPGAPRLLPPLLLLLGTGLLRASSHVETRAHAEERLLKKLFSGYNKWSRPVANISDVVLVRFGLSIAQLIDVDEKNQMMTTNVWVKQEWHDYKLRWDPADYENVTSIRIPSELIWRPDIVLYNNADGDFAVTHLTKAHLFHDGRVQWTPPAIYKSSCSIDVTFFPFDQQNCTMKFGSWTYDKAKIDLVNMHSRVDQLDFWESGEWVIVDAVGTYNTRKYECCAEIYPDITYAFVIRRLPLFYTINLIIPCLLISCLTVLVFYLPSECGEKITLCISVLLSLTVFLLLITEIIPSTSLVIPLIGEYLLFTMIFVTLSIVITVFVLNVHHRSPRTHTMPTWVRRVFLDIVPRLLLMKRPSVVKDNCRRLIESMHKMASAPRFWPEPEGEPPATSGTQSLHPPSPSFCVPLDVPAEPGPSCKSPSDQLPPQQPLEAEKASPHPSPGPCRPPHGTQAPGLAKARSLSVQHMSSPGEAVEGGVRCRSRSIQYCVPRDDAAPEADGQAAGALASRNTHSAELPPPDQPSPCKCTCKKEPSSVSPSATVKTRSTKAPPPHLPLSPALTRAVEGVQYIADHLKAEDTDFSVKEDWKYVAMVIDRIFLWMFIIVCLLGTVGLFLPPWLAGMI
The target in experiment [5] is Gamma-aminobutyric acid receptor subunit alpha-1 (Rattus norvegicus, UniProt P62813). It counts as functional.
Chain of Gamma-aminobutyric acid receptor subunit alpha-1 (P62813 whole entry): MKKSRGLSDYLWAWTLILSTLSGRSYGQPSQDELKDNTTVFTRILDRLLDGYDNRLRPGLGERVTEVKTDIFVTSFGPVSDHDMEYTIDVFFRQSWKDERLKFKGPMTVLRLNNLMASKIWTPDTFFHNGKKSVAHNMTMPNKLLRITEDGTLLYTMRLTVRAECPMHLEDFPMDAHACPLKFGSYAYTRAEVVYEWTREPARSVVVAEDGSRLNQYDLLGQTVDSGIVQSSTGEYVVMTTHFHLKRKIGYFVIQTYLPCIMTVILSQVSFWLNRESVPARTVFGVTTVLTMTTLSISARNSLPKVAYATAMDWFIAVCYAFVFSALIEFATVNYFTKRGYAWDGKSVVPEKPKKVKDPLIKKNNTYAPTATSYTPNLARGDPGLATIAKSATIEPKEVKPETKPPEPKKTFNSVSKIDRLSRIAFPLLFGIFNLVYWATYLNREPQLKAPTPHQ
For experiment [6], the target named is Histamine H2 receptor (Homo sapiens, UniProt P25021). The experiment is classed as functional, cell-based.
Chain of Histamine H2 receptor (P25021 whole entry): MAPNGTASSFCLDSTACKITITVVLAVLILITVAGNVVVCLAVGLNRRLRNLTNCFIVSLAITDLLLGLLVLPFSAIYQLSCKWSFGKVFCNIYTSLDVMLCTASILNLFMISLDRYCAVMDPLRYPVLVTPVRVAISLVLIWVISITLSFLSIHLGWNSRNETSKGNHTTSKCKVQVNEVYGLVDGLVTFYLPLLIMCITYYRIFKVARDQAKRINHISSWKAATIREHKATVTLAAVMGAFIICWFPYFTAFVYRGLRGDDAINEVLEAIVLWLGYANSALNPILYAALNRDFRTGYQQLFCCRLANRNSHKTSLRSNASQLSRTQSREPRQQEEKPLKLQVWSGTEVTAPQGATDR
The target of experiment [7] is T3, 5-hydroxytryptamine receptor 2C (Homo sapiens, UniProt P28335).
T3 sequence (P28335 whole entry): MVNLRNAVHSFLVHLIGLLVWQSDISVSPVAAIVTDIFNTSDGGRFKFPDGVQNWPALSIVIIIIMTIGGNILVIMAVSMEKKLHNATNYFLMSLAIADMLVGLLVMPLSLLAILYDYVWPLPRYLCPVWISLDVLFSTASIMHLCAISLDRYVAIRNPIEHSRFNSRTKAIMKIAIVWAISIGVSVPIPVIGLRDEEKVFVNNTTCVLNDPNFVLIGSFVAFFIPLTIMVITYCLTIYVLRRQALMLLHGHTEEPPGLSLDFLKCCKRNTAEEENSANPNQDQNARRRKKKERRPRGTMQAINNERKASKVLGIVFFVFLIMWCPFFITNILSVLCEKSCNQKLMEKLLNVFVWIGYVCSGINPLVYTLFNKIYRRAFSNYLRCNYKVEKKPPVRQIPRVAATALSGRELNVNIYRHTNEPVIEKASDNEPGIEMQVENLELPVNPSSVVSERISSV

Experiment [8] deals with Delta-type opioid receptor (Homo sapiens, UniProt P41143).
Chain of Delta-type opioid receptor (P41143 whole entry): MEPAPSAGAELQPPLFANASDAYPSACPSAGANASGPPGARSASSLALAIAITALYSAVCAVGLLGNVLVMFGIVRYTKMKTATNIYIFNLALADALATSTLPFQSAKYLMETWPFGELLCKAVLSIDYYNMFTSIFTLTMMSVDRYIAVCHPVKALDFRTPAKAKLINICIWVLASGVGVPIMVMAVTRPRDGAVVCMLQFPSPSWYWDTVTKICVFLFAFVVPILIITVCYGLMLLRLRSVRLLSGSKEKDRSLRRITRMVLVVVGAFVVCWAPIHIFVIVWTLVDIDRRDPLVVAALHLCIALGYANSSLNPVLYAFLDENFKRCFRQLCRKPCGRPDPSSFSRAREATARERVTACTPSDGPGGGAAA
Experiment [9] has as its target T4, Alpha-1A adrenergic receptor (Homo sapiens, UniProt P35348).
T4 sequence (P35348 whole entry): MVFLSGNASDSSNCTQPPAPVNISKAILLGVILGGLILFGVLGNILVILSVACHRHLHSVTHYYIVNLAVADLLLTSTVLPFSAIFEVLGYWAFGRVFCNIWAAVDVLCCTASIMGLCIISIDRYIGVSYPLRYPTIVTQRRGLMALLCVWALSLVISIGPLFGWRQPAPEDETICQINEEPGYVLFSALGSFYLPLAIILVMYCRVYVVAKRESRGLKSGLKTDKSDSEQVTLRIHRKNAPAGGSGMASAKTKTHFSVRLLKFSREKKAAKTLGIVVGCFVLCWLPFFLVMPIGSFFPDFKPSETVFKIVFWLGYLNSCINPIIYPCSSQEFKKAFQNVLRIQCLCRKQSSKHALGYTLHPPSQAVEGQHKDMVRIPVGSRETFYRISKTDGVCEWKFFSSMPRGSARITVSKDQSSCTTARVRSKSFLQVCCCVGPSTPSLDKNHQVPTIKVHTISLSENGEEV
The experiment is classed as functional, cell-based.
Further: assay procedure not described here.

Chain of Vasopressin V1a receptor (P37288 whole entry): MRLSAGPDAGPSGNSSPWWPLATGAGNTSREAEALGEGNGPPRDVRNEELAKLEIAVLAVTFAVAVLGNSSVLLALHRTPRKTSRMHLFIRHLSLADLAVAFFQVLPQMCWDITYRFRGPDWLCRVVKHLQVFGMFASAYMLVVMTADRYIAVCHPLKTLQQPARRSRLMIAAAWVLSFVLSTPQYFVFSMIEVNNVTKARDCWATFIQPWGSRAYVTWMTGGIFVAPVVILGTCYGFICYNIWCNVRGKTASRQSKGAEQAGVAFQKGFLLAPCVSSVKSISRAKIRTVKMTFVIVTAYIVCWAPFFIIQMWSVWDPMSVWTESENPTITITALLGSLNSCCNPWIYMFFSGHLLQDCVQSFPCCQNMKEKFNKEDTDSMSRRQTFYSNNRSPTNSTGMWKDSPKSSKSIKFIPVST

Take `N#Cc1ccccc1-c1cc(-c2ccccn2)cn(-c2ccccc2)c1=O`: the AC50 in experiment [1], in experiment [2], in experiment [3], in experiment [4], in experiment [5] and in experiment [6] was over 30 µM throughout. Further, the AC50 in experiment [7], in [8] and in experiment [9] was over 30 µM each time.

Regarding `N=C(N)NCCCCCCC(=O)NC(O)C(=O)NCCCCNCCCN` (configuration not stated), the AC50 in experiment [1], in experiment [2], in experiment [3], in experiment [4], in experiment [5] and in experiment [6] was over 30 µM each time. The half-maximal activity concentration (AC50) in experiment [7], in experiment [8] and in [9] was over 30 µM each time.

For the molecule `O=C(CCCN1CCC(n2c(O)nc3ccccc32)CC1)c1ccc(F)cc1` [BENPERIDOL], the AC50 is over 30 µM in experiment [1]; 1.9 µM in experiment [2]; over 30 µM in experiment [3]; over 30 µM in experiment [4]; over 30 µM in experiment [5]; over 30 µM in experiment [6]. The results for the concentration at half-maximal activity (AC50) in [7], in experiment [8] and in [9] were 13 µM, over 30 µM and 0.0706 µM, respectively.

Regarding `CCC(=O)OCC(=O)[C@@]1(OC(=O)CC)[C@@H](C)C[C@H]2[C@@H]3CCC4=CC(=O)C=C[C@]4(C)[C@@]3(F)[C@@H](O)C[C@@]21C` [BETAMETHASONE DIPROPIONATE], the AC50 in experiment [1], in [2], in experiment [3], in experiment [4], in [5] and in [6] was over 30 µM throughout. Moreover, the AC50 in experiment [7] and in experiment [9] was over 30 µM in each case.

With `CCCCC1(CC)C(=O)NC(=O)NC1=O` [BUTETHAL], the AC50 in experiment [1], in experiment [2], in experiment [3], in experiment [4], in experiment [5] and in [6] was over 30 µM throughout. Further, the AC50 in experiment [7], in experiment [8] and in experiment [9] was over 30 µM throughout.

As for `CCOC(=O)NNc1ccc(N(CC)CC(C)O)nn1` (configuration not stated) [CADRALAZINE], the AC50 in experiment [1], in experiment [2], in experiment [3], in experiment [4], in [5] and in [6] was over 30 µM in each case. Also, the AC50 in [7], in [8] and in experiment [9] was over 30 µM each time.

For the molecule `CCN(CC)CCOC(=O)c1ccc(N)cc1Cl` [CHLOROPROCAINE], the AC50 in [1] was over 30 µM; in [2], over 30 µM; in [3], over 30 µM; in experiment [4], 25 µM; in experiment [5], over 30 µM; in experiment [6], over 30 µM. The results for the AC50 in [7], in [8] and in experiment [9] were 17 µM, over 30 µM and over 30 µM, respectively.

With `CCC(C)(Oc1ccc(C2(c3ccc(OC(C)(CC)C(=O)O)cc3)CCCCC2)cc1)C(=O)O` (configuration not stated) [CLINOFIBRATE], the AC50 in [1], in experiment [2], in [3], in experiment [4], in experiment [5] and in [6] was over 30 µM throughout. Besides, the AC50 in experiment [7], in experiment [8] and in experiment [9] was over 30 µM each time.

In the case of `CCCCC[C@H](O)/C=C/[C@H]1[C@H](O)CC(=O)[C@@H]1C/C=C\CCCC(=O)O` [DINOPROSTONE], the AC50 in experiment [1], in [2], in experiment [3], in experiment [4], in experiment [5] and in experiment [6] was over 30 µM in each case. Also, the AC50 in [7], in experiment [8] and in [9] was over 30 µM in each case.

In the case of `CC(C)c1cc2c(cc1S(=O)(=O)O)[C@@]1(C)CCC[C@@](C)(C(=O)O)[C@@H]1CC2` [ECABET], the AC50 in experiment [1], in experiment [2], in experiment [3], in [4], in [5] and in [6] was over 30 µM each time. In addition, the AC50 in experiment [7], in experiment [8] and in experiment [9] was over 30 µM throughout.

`CCCN(CC)C(CC)C(=O)Nc1c(C)cccc1C` (configuration not stated) [ETIDOCAINE]: the AC50 in experiment [1], in experiment [2], in experiment [3], in [4], in [5] and in experiment [6] was over 30 µM in each case. The half-maximal activity concentration (AC50) in experiment [7], in experiment [8] and in [9] was over 30 µM throughout.

For `O=C(O)c1ccccc1OP(=O)(O)O` [FOSFOSAL], the AC50 in experiment [1], in [2], in experiment [3], in experiment [4], in [5] and in experiment [6] was over 30 µM in each case. The AC50 in experiment [7], in experiment [8] and in experiment [9] was over 30 µM each time.

Take `C#C[C@]1(O)CC[C@H]2[C@@H]3CCC4=CC(=O)CCC4=C3C=C[C@@]21CC` [GESTRINONE]: the AC50 in experiment [1] was over 30 µM; in [2], over 30 µM; in experiment [3], over 30 µM; in experiment [4] it was over 30 µM; in experiment [5], 8.8 µM; in [6] it was over 30 µM. The AC50 in experiment [7], in experiment [8] and in experiment [9] was over 30 µM throughout.

Turning to `CCCCCCOC(=O)CCC(=O)CN` [HEXAMINOLEVULINATE], the AC50 in experiment [1], in experiment [2], in [3], in experiment [4], in experiment [5] and in experiment [6] was over 30 µM throughout. Besides, the values for the AC50 in [7], in experiment [8] and in experiment [9] were 24 µM, over 30 µM and over 30 µM, respectively.

`CCCC[C@H](C)C[C@H](O)/C=C/[C@H]1[C@H](O)CC(=O)[C@@H]1CCCC/C=C/C(=O)O` [LIMAPROST]: the AC50 in [1], in experiment [2], in experiment [3], in experiment [4], in experiment [6] and in [7] was over 30 µM in each case. Moreover, the AC50 in experiment [8] and in [9] was over 30 µM in each case.

With `Cc1ccc(NC(=O)C2(c3ccc4c(c3)OC(F)(F)O4)CC2)nc1-c1cccc(C(=O)O)c1` [LUMACAFTOR], the concentration at half-maximal activity (AC50) in experiment [1], in [2], in experiment [3], in [4], in experiment [5] and in [6] was over 30 µM throughout. Further, the half-maximal activity concentration (AC50) in experiment [7] is over 30 µM; in experiment [8], over 30 µM; in experiment [9], 25 µM.
